Measurements reported in ChEMBL document CHEMBL1287643, “3D-QSAR pharmacophore modeling and in silico screening of new Bcl-xl inhibitors” (Eur J Med Chem, 2010).

What follows are molecules tested against Bcl-2-like protein 1 (Homo sapiens, UniProt Q07817) (assay: Inhibition of Bcl-XL).
Sequence of Bcl-2-like protein 1 (Q07817 whole entry): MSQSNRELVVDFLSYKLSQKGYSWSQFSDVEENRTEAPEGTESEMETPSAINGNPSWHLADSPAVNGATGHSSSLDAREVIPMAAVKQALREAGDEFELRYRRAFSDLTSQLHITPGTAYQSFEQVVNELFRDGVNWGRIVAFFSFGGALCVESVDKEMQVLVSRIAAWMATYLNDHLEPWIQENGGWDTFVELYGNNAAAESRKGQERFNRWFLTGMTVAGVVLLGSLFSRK

Row | Structure (SMILES) | EC50 [nM]
1 | CN(C)CCC(CSc1ccccc1)Nc1ccc(S(=O)(=O)NC(=O)c2ccc(N3CCN(Cc4ccccc4-c4ccccc4)CC3)cc2)cc1[N+](=O)[O-] (stereo unspecified) | 18
2 | CN(C)CCC(CSc1ccccc1)Nc1ccc(S(=O)(=O)NC(=O)c2ccc(N3CCN(Cc4ccccc4-c4cccc(Cl)c4)CC3)cc2)cc1[N+](=O)[O-] (stereo unspecified) | 180
3 | CN(C)CCC(CSc1ccccc1)Nc1ccc(S(=O)(=O)NC(=O)c2ccc(N3CCN(Cc4ccccc4-c4ccccc4Cl)CC3)cc2)cc1[N+](=O)[O-] (stereo unspecified) | 56
4 | CN(C)CCC(CSc1ccccc1)Nc1ccc(S(=O)(=O)NC(=O)c2ccc(N3CCN(Cc4ccccc4-c4ccc(S(C)(=O)=O)cc4)CC3)cc2)cc1[N+](=O)[O-] (stereo unspecified) | 460
5 | COc1ccccc1C=C1CCN(c2ccc(C(=O)NS(=O)(=O)c3ccc(NC(CCN(C)C)CSc4ccccc4)c([N+](=O)[O-])c3)cc2)CC1 (stereo unspecified) | 300
6 | CN(C)CCC(CSc1ccccc1)Nc1ccc(S(=O)(=O)NC(=O)c2ccc(N3CCC(=Cc4ccccn4)CC3)cc2)cc1[N+](=O)[O-] (stereo unspecified) | 550
7 | CN(C)CCC(CSc1ccccc1)Nc1ccc(S(=O)(=O)NC(=O)c2ccc(N3CCN(Cc4ccccc4)CC3)cc2)cc1[N+](=O)[O-] (stereo unspecified) | 1100
8 | CN(C)CCC(CSc1ccccc1)Nc1ccc(S(=O)(=O)NC(=O)c2ccc(N3CCC(=Cc4ccccc4F)CC3)cc2)cc1[N+](=O)[O-] (stereo unspecified) | 250
9 | COC1(Cc2ccc(-c3ccccc3)cc2)CCN(c2ccc(C(=O)NS(=O)(=O)c3ccc(NC(CCN(C)C)CSc4ccccc4)c([N+](=O)[O-])c3)cc2)CC1 (stereo unspecified) | 600
10 | COc1cccc(-c2ccccc2CN2CCN(c3ccc(C(=O)NS(=O)(=O)c4ccc(NC(CCN(C)C)CSc5ccccc5)c([N+](=O)[O-])c4)cc3)CC2)c1 (stereo unspecified) | 380
11 | COC1(CC2CCCCC2)CCN(c2ccc(C(=O)NS(=O)(=O)c3ccc(NC(CCN(C)C)CSc4ccccc4)c([N+](=O)[O-])c3)cc2)CC1 (stereo unspecified) | 320
12 | CN(C)CCC(CSc1ccccc1)Nc1ccc(S(=O)(=O)NC(=O)c2ccc(N3CCN(Cc4ccccc4-c4ccc(F)cc4)CC3)cc2)cc1[N+](=O)[O-] (stereo unspecified) | 130
13 | CN(C)CCC(CSc1ccccc1)Nc1ccc(S(=O)(=O)NC(=O)c2ccc(N3CCC(=Cc4ccccc4-c4ccccc4)CC3)cc2)cc1[N+](=O)[O-] (stereo unspecified) | 160
14 | CN(C)CCC(CSc1ccccc1)Nc1ccc(S(=O)(=O)NC(=O)c2ccc(N3CCC(=Cc4ccc(C(F)(F)F)cc4)CC3)cc2)cc1[N+](=O)[O-] (stereo unspecified) | 2600
15 | CN(C)CCC(CSc1ccccc1)Nc1ccc(S(=O)(=O)NC(=O)c2ccc(N3CCN(Cc4ccccc4C4CCCCC4)CC3)cc2)cc1[N+](=O)[O-] (stereo unspecified) | 340
16 | COc1ccccc1CN1CCN(c2ccc(C(=O)NS(=O)(=O)c3ccc(NC(CCN(C)C)CSc4ccccc4)c([N+](=O)[O-])c3)cc2)CC1 (stereo unspecified) | 390
17 | COC1(Cc2ccccc2F)CCN(c2ccc(C(=O)NS(=O)(=O)c3ccc(NC(CCN(C)C)CSc4ccccc4)c([N+](=O)[O-])c3)cc2)CC1 (stereo unspecified) | 180
18 | COC1(CC(C)(C)C)CCN(c2ccc(C(=O)NS(=O)(=O)c3ccc(NC(CCN(C)C)CSc4ccccc4)c([N+](=O)[O-])c3)cc2)CC1 (stereo unspecified) | 750
19 | CN(C)CCC(CSc1ccccc1)Nc1ccc(S(=O)(=O)NC(=O)c2ccc(N3CCC(=Cc4ccc(Cl)cc4)CC3)cc2)cc1[N+](=O)[O-] (stereo unspecified) | 619
20 | COC1(CC(C)C)CCN(c2ccc(C(=O)NS(=O)(=O)c3ccc(NC(CCN(C)C)CSc4ccccc4)c([N+](=O)[O-])c3)cc2)CC1 (stereo unspecified) | 579
21 | COC1(Cc2ccccc2-c2ccccc2)CCN(c2ccc(C(=O)NS(=O)(=O)c3ccc(NC(CCN(C)C)CSc4ccccc4)c([N+](=O)[O-])c3)cc2)CC1 (stereo unspecified) | 35

Row | Structure (SMILES) | EC50 [nM]
22 | CN(C)CCC(CSc1ccccc1)Nc1ccc(S(=O)(=O)NC(=O)c2ccc(N3CCN(Cc4ccccc4-c4ccc(-c5ccccc5)cc4)CC3)cc2)cc1[N+](=O)[O-] (stereo unspecified) | 22
23 | CN(C)CCC(CSc1ccccc1)Nc1ccc(S(=O)(=O)NC(=O)c2ccc(N3CCN(Cc4ccccc4-c4ccc(C(F)(F)F)cc4)CC3)cc2)cc1[N+](=O)[O-] (stereo unspecified) | 40
24 | Cc1ccccc1CN1CCN(c2ccc(C(=O)NS(=O)(=O)c3ccc(NC(CCN(C)C)CSc4ccccc4)c([N+](=O)[O-])c3)cc2)CC1 (stereo unspecified) | 410
25 | COc1ccc(-c2ccccc2CN2CCN(c3ccc(C(=O)NS(=O)(=O)c4ccc(NC(CCN(C)C)CSc5ccccc5)c([N+](=O)[O-])c4)cc3)CC2)cc1 (stereo unspecified) | 30
26 | CSc1ccccc1CN1CCN(c2ccc(C(=O)NS(=O)(=O)c3ccc(NC(CCN(C)C)CSc4ccccc4)c([N+](=O)[O-])c3)cc2)CC1 (stereo unspecified) | 95.1
27 | CN(C)CCC(CSc1ccccc1)Nc1ccc(S(=O)(=O)NC(=O)c2ccc(N3CCN(Cc4ccccc4S(C)(=O)=O)CC3)cc2)cc1[N+](=O)[O-] (stereo unspecified) | 5500
28 | CN(C)CCC(CSc1ccccc1)Nc1ccc(S(=O)(=O)NC(=O)c2ccc(N3CCN(Cc4ccccc4-c4cccnc4)CC3)cc2)cc1[N+](=O)[O-] (stereo unspecified) | 800
29 | COC1(Cc2ccccc2Cl)CCN(c2ccc(C(=O)NS(=O)(=O)c3ccc(NC(CCN(C)C)CSc4ccccc4)c([N+](=O)[O-])c3)cc2)CC1 (stereo unspecified) | 230
30 | COC1(Cc2ccc(Cl)cc2)CCN(c2ccc(C(=O)NS(=O)(=O)c3ccc(NC(CCN(C)C)CSc4ccccc4)c([N+](=O)[O-])c3)cc2)CC1 (stereo unspecified) | 400
31 | CN(C)CCC(CSc1ccccc1)Nc1ccc(S(=O)(=O)NC(=O)c2ccc(N3CCC(=Cc4cccnc4)CC3)cc2)cc1[N+](=O)[O-] (stereo unspecified) | 1900
32 | COc1ccccc1CC1(OC)CCN(c2ccc(C(=O)NS(=O)(=O)c3ccc(NC(CCN(C)C)CSc4ccccc4)c([N+](=O)[O-])c3)cc2)CC1 (stereo unspecified) | 150
33 | COC1(Cc2ccccc2Br)CCN(c2ccc(C(=O)NS(=O)(=O)c3ccc(NC(CCN(C)C)CSc4ccccc4)c([N+](=O)[O-])c3)cc2)CC1 (stereo unspecified) | 100
34 | CN(C)CCC(CSc1ccccc1)Nc1ccc(S(=O)(=O)NC(=O)c2ccc(N3CCN(Cc4ccccc4C(F)(F)F)CC3)cc2)cc1[N+](=O)[O-] (stereo unspecified) | 390
35 | COC1(Cc2ccccc2C)CCN(c2ccc(C(=O)NS(=O)(=O)c3ccc(NC(CCN(C)C)CSc4ccccc4)c([N+](=O)[O-])c3)cc2)CC1 (stereo unspecified) | 150
36 | CN(C)CCC(CSc1ccccc1)Nc1ccc(S(=O)(=O)NC(=O)c2ccc(N3CCC(=Cc4ccc(F)cc4)CC3)cc2)cc1[N+](=O)[O-] (stereo unspecified) | 380
37 | CN(C)CCC(CSc1ccccc1)Nc1ccc(S(=O)(=O)NC(=O)c2ccc(N3CCC(=Cc4ccccc4C#N)CC3)cc2)cc1[N+](=O)[O-] (stereo unspecified) | 1100
38 | COC1(Cc2ccccc2)CCN(c2ccc(C(=O)NS(=O)(=O)c3ccc(NC(CCN(C)C)CSc4ccccc4)c([N+](=O)[O-])c3)cc2)CC1 (stereo unspecified) | 681
39 | COC1(Cc2cccc(Cl)c2)CCN(c2ccc(C(=O)NS(=O)(=O)c3ccc(NC(CCN(C)C)CSc4ccccc4)c([N+](=O)[O-])c3)cc2)CC1 (stereo unspecified) | 250
40 | CN(C)CCC(CSc1ccccc1)Nc1ccc(S(=O)(=O)NC(=O)c2ccc(N3CCN(Cc4ccccc4NC4CCCCC4)CC3)cc2)cc1[N+](=O)[O-] (stereo unspecified) | 661
41 | CN(C)CCC(CSc1ccccc1)Nc1ccc(S(=O)(=O)NC(=O)c2ccc(N3CCC(=Cc4ccccc4C(F)(F)F)CC3)cc2)cc1[N+](=O)[O-] (stereo unspecified) | 150
